Tests used:
[1] = known; cited from earlier work
[2] = system: adverse drug reactions of lost hair on the head and rough skin; conditions: person, hydrogen gas 6.6% by volume, approximately 120 mL/min
[3] = system: malaise and nausea after radiotherapy; conditions: cancer patient after radiotherapy, hydrogen gas 3% to 4% by volume, approximately 120 mL/min
[4] = system: rhabdomyolysis caused by the antibacterial agent; conditions: person, hydrogen gas 6.6% by volume, approximately 120 mL/min, 90 minutes per day for two weeks
From the text: They lost strength in the body and was taken to hospital by ambulance. […] They were discharged from hospital one week later, but the tiredness persisted, and they had difficulty in putting strength into the limbs. […] Their condition improved to the extent that they could have a walk.

[5] = system: adverse drug reaction of persistent insomnia, malaise; conditions: person
From the text: A patient with esophageal cancer experienced an adverse drug reaction of persistent insomnia due to treatment with anticancer agents, lost appetite because of malaise, and could not even go out. […] The inhalation time per day was two to three hours. […] When they drank too much alcohol, they used to have a severe hangover.

[6] = system: adverse drug reactions of sleepiness and tiredness; conditions: person, three days later
[7] = system: adverse reactions to hemodialysis (walking difficulty, edema); conditions: person on hemodialysis, hydrogen approximately 5% in air, 200 mL/min, three to four hours per day
From the text: A patient developed renal failure as a complication of diabetes mellitus and has been receiving hemodialysis since 2006.

[8] = system: adverse drug reactions of malaise and rough skin; conditions: person; hydrogen gas 4% to 5% by volume, approximately 200 mL/min, three to five hours per day, plus 500 mL per day of 7 ppm hydrogen water; three months

Row | SMILES | superoxide eliminating effect compared with H2 [1] | rough skin ([2]; sarcoma, anticancer agents and Opdivo, approximately one month later) | hair on the head ([2]; inhalation continued for six months after anticancer treatment) | nausea ([3]; 90 minutes later) | malaise (body feeling) ([3]; one hour after start of inhalation) | strength in the limbs ([4]; new quinolone antibacterial agent) | tiredness [4] | sleep (insomnia) ([5]; esophageal cancer, hydrogen gas 1.3% by volume, approximately 30 mL/min, two to three hours per day, following the second inhalation) | ability to go out / body feeling ([5]; hydrogen gas 1.3% by volume, approximately 30 mL/min, two to three hours per day) | hangover after too much alcohol ([5]; hydrogen inhaled before going to sleep) | tiredness of the body after taking the drugs ([6]; cedar pollinosis, hydrogen gas 6.6% by volume, approximately 120 mL/min, 90 minutes to three hours per day, plus 7 ppm hydrogen water 500 mL to 1 L per day) | sleepiness / clearness of the head ([6]; hydrogen gas 6.6% by volume plus 7 ppm hydrogen water) | walking difficulty ([7]; from 10 days after initiation) | edema after dialysis ([7]; from one month after initiation) | malaise [8] | skin condition [8]
1 | [2H][2H] [D2, deuterium] | stronger |  |  |  |  |  |  |  |  |  |  |  |  |  |  | 
2 | [HH] [hydrogen gas, molecular hydrogen] |  | the rough skin started improving | started growing | Nausea was gradually resolving | they felt the body becoming light | became gradually able to put strength into the limbs | reduced tiredness | could sleep soundly | the patient was able to go out | a hangover started improving earlier than usual | reduced | they felt that the head was cleared | able to walk | edema was reduced | malaise subsided | the skin started becoming lustrous
